Seven compounds from PubChem BioAssay (NCI) can be followed below.

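Cultured in 96-well plates, cells were exposed to test compound for 48 hours across five concentrations. TGI is the concentration that stops growth completely.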

Some test systems named below: K-562 leukemia; M14 melanoma; T-47D breast; SF-539 CNS; IGROV1 ovarian; MDA-N; UO-31 renal; SN12C renal; HOP-92 NSCLC; DU-145 prostate; HOP-62 NSCLC; SR leukemia; UACC-62 melanoma; HS 578T breast; SNB-75 CNS; NCI-H460 lung; SK-MEL-28 melanoma; ACHN renal; A498 renal; BT-549 breast.
Common to all, as to test: NCI-60 cell line screen, 48 h

Turning to `C=C(CCOC)CCC1CCCCC(=C)[C@H]1OC(C)=O` (some centres undefined), the TGI with K-562 leukemia, in the test on M14 melanoma, in the test with T-47D breast, in the test with SF-539 CNS, in the test on IGROV1 ovarian and with MDA-N was greater than 100 µM each time. The TGI with UO-31 renal, in the test with SN12C renal, in the test with HOP-92 NSCLC, in the test on DU-145 prostate, in the test on HOP-62 NSCLC and in the test with SR leukemia was greater than 100 µM throughout. Moreover, the TGI in the test with UACC-62 melanoma, in the test with HS 578T breast, in the test with SNB-75 CNS, in the test on NCI-H460 lung, with SK-MEL-28 melanoma and in the test with ACHN renal was greater than 100 µM each time. The compound also yielded a TGI in the test with A498 renal greater than 100 µM.
As for `CN1CN(c2ccccc2)C2(CCN(Cc3csc4ccccc34)CC2)C1=O`, the TGI was greater than 100 µM in the test on K-562 leukemia; 39.8 µM in the test with M14 melanoma; 71 µM in the test on T-47D breast; 48.3 µM with SF-539 CNS; 44.7 µM with IGROV1 ovarian; 32.2 µM in the test with MDA-N. In addition, the TGI with UO-31 renal was 12.3 µM; in the test with SN12C renal it was 30.6 µM; in the test on DU-145 prostate, greater than 100 µM; with HOP-62 NSCLC it was 87.5 µM; in the test on SR leukemia it was 23.2 µM; with UACC-62 melanoma it was greater than 100 µM. Also, the TGI is greater than 100 µM in the test with SNB-75 CNS, 68.7 µM in the test with SK-MEL-28 melanoma, 20.5 µM with BT-549 breast and 92.4 µM in the test on ACHN renal.
In the case of `CC(=O)C1(Cc2cccc3ccccc23)S(=O)(=O)OCCOS1(=O)=O`, the TGI was greater than 100 µM in the test with K-562 leukemia; 56.7 µM with M14 melanoma; 43.3 µM with T-47D breast; 37.8 µM in the test with SF-539 CNS; 15.1 µM with IGROV1 ovarian; 24.6 µM with MDA-N. The TGI amounted to 29.3 µM with UO-31 renal; 25 µM in the test with SN12C renal; 48.4 µM in the test with HOP-92 NSCLC; 42.2 µM with DU-145 prostate; 44.8 µM in the test with HOP-62 NSCLC; 44 µM in the test on SR leukemia. In addition, the TGI is 31.9 µM with UACC-62 melanoma; 65.4 µM in the test on SNB-75 CNS; 34 µM with NCI-H460 lung; 41.2 µM in the test with SK-MEL-28 melanoma; 30.6 µM in the test on BT-549 breast; 38 µM in the test on ACHN renal. In the test on A498 renal, this compound registered a TGI of 35.7 µM.
Take `O=c1[nH]nc(-c2ccccc2)n1Nc1ccccc1`: the TGI with K-562 leukemia, with M14 melanoma, with T-47D breast, with SF-539 CNS, in the test on IGROV1 ovarian and in the test with MDA-N was greater than 100 µM throughout. In addition, the TGI with UO-31 renal, in the test on SN12C renal, with HOP-92 NSCLC, in the test on DU-145 prostate, in the test with SR leukemia and in the test on UACC-62 melanoma was greater than 100 µM each time. For the same compound, the TGI with HS 578T breast, with SNB-75 CNS, in the test on NCI-H460 lung, in the test on SK-MEL-28 melanoma, in the test with ACHN renal and with A498 renal was greater than 100 µM each time.
On to `CCN(C(=O)N[C@@H](Cc1ccccc1)C(=O)N[C@@H](CC(C)C)C(=O)OC)c1ccccc1`, for which the TGI was greater than 100 µM in the test on K-562 leukemia; 21.9 µM in the test with M14 melanoma; greater than 100 µM with T-47D breast; 36.1 µM in the test on SF-539 CNS; 42.2 µM in the test with IGROV1 ovarian; greater than 100 µM with MDA-N. In addition, the TGI stood at 33.3 µM in the test with UO-31 renal; 43.8 µM in the test on SN12C renal; 59.5 µM in the test on HOP-92 NSCLC; 31.7 µM in the test on DU-145 prostate; 70.6 µM in the test with HOP-62 NSCLC; 23.9 µM in the test on SR leukemia. Besides, the TGI in the test on UACC-62 melanoma was 36.1 µM; in the test with NCI-H460 lung, 24.9 µM; in the test with SK-MEL-28 melanoma, 32.6 µM; with BT-549 breast it was greater than 100 µM; with ACHN renal it was 51.3 µM.
`CCCCCC(C/C=N/N(C)C)C(O)(C(F)(F)F)C(F)(F)F` (centres undefined): the TGI in the test on K-562 leukemia is greater than 100 µM; in the test on M14 melanoma, greater than 100 µM; in the test on T-47D breast, greater than 100 µM; in the test with SF-539 CNS, 82.7 µM; in the test with IGROV1 ovarian it was 74.5 µM; in the test on MDA-N it was greater than 100 µM. Further, the TGI in the test with UO-31 renal is greater than 100 µM; in the test on SN12C renal it was greater than 100 µM; in the test with HOP-92 NSCLC, 78.2 µM; in the test on DU-145 prostate, greater than 100 µM; in the test on HOP-62 NSCLC it was greater than 100 µM; in the test on SR leukemia, greater than 100 µM. The TGI is greater than 100 µM in the test on UACC-62 melanoma; 91.8 µM in the test with HS 578T breast; 97.4 µM in the test on SNB-75 CNS; greater than 100 µM in the test on NCI-H460 lung; greater than 100 µM in the test with SK-MEL-28 melanoma; 52.7 µM in the test on ACHN renal. This compound also came in with a TGI in the test with A498 renal of 56 µM.
Turning to `O=C(O)Cc1c(-c2ccc([N+](=O)[O-])cc2)c(=O)oc2cc(O)ccc12`, the TGI with K-562 leukemia was greater than 100 µM; with M14 melanoma, greater than 100 µM; in the test on SF-539 CNS, 82 µM; with IGROV1 ovarian it was greater than 100 µM; with MDA-N it was greater than 100 µM; with UO-31 renal, 83.6 µM. Besides, the TGI in the test on SN12C renal was greater than 100 µM; in the test on DU-145 prostate, greater than 100 µM; with SR leukemia it was greater than 100 µM; in the test with UACC-62 melanoma, greater than 100 µM; in the test on HS 578T breast, 71.9 µM; in the test on NCI-H460 lung it was greater than 100 µM. Further, the TGI is greater than 100 µM in the test with SK-MEL-28 melanoma, 59.1 µM with BT-549 breast, 91.8 µM with ACHN renal and 70.2 µM in the test on A498 renal.
